Experimental data taken from US20150366836A1, “METHOD AND PHARMACEUTICAL COMPOSITION FOR TREATING COLORECTAL CANCER” (National Dong Hua University, priority 2014, published 2015).

Key:
[1] = tested on: mouse bearing inflammatory bowel disease (IBD), AOM/DSS induced; experiment: Mouse model bearing IBD (AOM/DSS induced), body weight and H&E staining of intestine; format: in vivo, C57/BL6 mice
Description: The animal experiments were approved by the National Dong-Hwa University Animal Ethics Committee and the experimental protocols were used according to the “Guide for the Care and Use of Laboratory Animals” of National Dong-Hwa University. On day 0, C57/BL6 mice (6-8 weeks old) were weighted and injected (intraperitoneal; i.p.) with 10 mg/kg body weight of azoxymethane (AOM) and then fed with 2% Dextran sodium sulfate solution (DSS solution) via water every day for 7 days. On day 8, the 2% DSS solution was changed to normal water for another 7 days. The cycle of DSS solution and water was repeated and the induction procedure was completed on day 35.
After the establishment of IBD in the experimental mice (on day 35), the mice were injected (i.p.) with 5-FU (15 mg/kg body weight) or HCD (0.64, 1.6, or 6.4 mg/kg body weight) once every three days for additional 30 days. Then, the mice were sacrificed. The colon, spleen, liver, and kidney thereof were immediately removed, observed, and further examined by H&E staining.

[2] = tested on: Caco2 cells; experiment: MTT assay cell viability, Caco2 cells; format: cell-based; details: for IC50: Homo sapiens, Caco-2, Caco2 cells, 48 hr treatment
Description: (§1) Two cell lines were used in this study, Caco2 cells and HT-29 cells. Both of them are colorectal cancer cells. Caco2 cells and HT-29 cells were maintained in DMEM (or RPMI) supplemented with 20% or 10% fetal bovine serum (FBS; GIBCO), pH 7.4 at 37° C. with continuous circulation of 5% CO2 incubator. The medium was changed every 2 days and the cells were trypsinized using trypsin/EDTA when reaching 80%-90% confluence.
(§2) In this example, the effects of HCD, PG, and 5-FU on the viability of Caco2 cells and HT-29 cells were examined. The MTT assay was employed for this purpose. The MTT (3-(4-,5-dimethylthiazol-2-yl)-2,5-diphenyltetrazolium bromide) assay is a common colorimetric method in the field for cell viability analysis. MTT (yellow tetrazolium salt) is reduced to a purple formazan by living cells and detection to the purple formazan can be calculated as the cell viability.
(§3) Briefly, cells (Caco2 or HT-29) were seeded in 96-well plate (7×10^3 cell per well) and incubated overnight (37° C., 5% CO2).
(§4) On the other hand, in the pretreatment analysis, cells (Caco2 or HT-29) were seeded in 96-well plate (7×10^3 cell per well) and incubated overnight (37° C., 5% CO2). In according to the treatments listed in the Table 1, Cells were pre-treated by HCD or PG for 6, 12, 24, 36, or 48 hr and then were treated by 5-FU for additional 24 hr.

[3] = tested on: Caco2 cells; experiment: Cell cycle analysis by flow cytometer (PI staining), Caco2 cells; format: cell-based
Description: (§5) The results of Example 2 in cell viability hinted the effects of HCD, PG, and 5-FU on arresting cell cycle. In this example, the phase of cell cycle of Caco2 and HT-29 cells after the treatment listed in Table 1 was determined by flow cytometer. Briefly, 7×10^4 cells per well were inoculated in 12-wells plate and incubated overnight at 37° C., 5% CO2. Then, cells were treated according to the treatment listed in Table 1 by indicated time period. After treatment, cells were harvested by trypsin and fixed with 70% ethanol at −20° C. for at least 3 hr. The cells were washed in cold PBS twice and then incubated with 1 mL (v/v) staining solution (20 μg/mL propidium iodide (PI), 0.1% Triton X-100, 0.2 mg/mL Rnase) at 37° C. for 30 minutes. Lastly, cells were analyzed by flow cytometer (Cytomics™ FC500, Backman, Fullerton, Calif., USA). Data from 10,000 cells were collected for each experimental group.

[4] = tested on: HT-29 cells; experiment: MTT assay cell viability, HT-29 cells; format: cell-based; details: for IC50: Homo sapiens, HT-29 cells, 36 hr treatment
Description: as §1, §2, §3, §4

[5] = tested on: HT-29 cells; experiment: Cell cycle analysis by flow cytometer (PI staining), HT-29 cells; format: cell-based
Description: as §5

## O=c1[nH]cc(F)c(=O)[nH]1 [5-FU, 5-Fluorouracil]
[1]; 15 mg/kg body weight i.p.
  intestine villus arrangement (H&E staining): irregular arrangement of villus
  lymph node (H&E staining): enlarged
[1]; 15 mg/kg body weight i.p. once every three days, 30 days
  body weight: initially reduced
[2]
  IC50: 100 µM
[3]; Caco2
  cell cycle arrest at sub-G1 phase vs control (in words): increased cell cycle arrest at sub-G1 phase
[3]; Caco2, 0.5 μM, 36 hr
  G0/G1 (%): 46.15 ± 1.34 %
  G2/M (%): 8.65 ± 1.48 %
  S (%): 20.05 ± 1.91%
  Sub G1 (%): 21.8 ± 5.09%
[3]; Caco2, 0.5 μM, 48 hr
  G0/G1 (%): 46.15 ± 1.34%
  G2/M (%): 1.5 ± 0.14 %
  S (%): 13.65 ± 1.34%
  Sub G1 (%): 20.9 ± 3.25%
[3]; Caco2, 2 μM, 36 hr
  G0/G1 (%): 36.65 ± 1.06 %
  G2/M (%): 1.85 ± 0.5 %
  S (%): 17.1 ± 2.12%
  Sub G1 (%): 40.1 ± 1.69 %
[3]; Caco2, 2 μM, 48 hr
  G0/G1 (%): 35.35 ± 2.47 %
  G2/M (%): 3.55 ± 3.89 %
  S (%): 18.05 ± 10.11%
  Sub G1 (%): 37.55 ± 14.64 %
[3]; Caco2, 5 μM, 36 hr
  G0/G1 (%): 39.1 ± 5.66 %
  G2/M (%): 1.05 ± 0.21%
  S (%): 12.5 ± 0.71%
  Sub G1 (%): 42.6 ± 5.37 %
[3]; Caco2, 5 μM, 48 hr
  G0/G1 (%): 36.7 ± 8.06 %
  G2/M (%): 2.7 ± 2.95 %
  S (%): 17.5 ± 10.47%
  Sub G1 (%): 38.3 ± 24.47 %
[4]
  IC50: 50 µM
[5]; HT-29
  cell cycle arrest at sub-G1 phase vs control (in words): increased cell cycle arrest at sub-G1 phase
[5]; HT-29, 0.5 μM, 24 hr
  G0/G1 (%): 40.05 ± 0.35 %
  G2/M (%): 17.45 ± 3.04%
  S (%): 28.65 ± 1.20 %
  Sub G1 (%): 6.75 ± 0.35%
[5]; HT-29, 0.5 μM, 36 hr
  G0/G1 (%): 46.15 ± 1.34 %
  G2/M (%): 8.65 ± 1.48 %
  S (%): 20.05 ± 1.91%
  Sub G1 (%): 21.8 ± 5.09%
[5]; HT-29, 2 μM, 24 hr
  G0/G1 (%): 50.3 ± 0.85%
  G2/M (%): 9.15 ± 0.78 %
  S (%): 26.15 ± 1.77 %
  Sub G1 (%): 7.75 ± 0.21%
[5]; HT-29, 2 μM, 36 hr
  G0/G1 (%): 36.65 ± 1.06 %
  G2/M (%): 1.85 ± 0.5 %
  S (%): 17.1 ± 2.12%
  Sub G1 (%): 40.1 ± 1.69 %
[5]; HT-29, 5 μM, 24 hr
  G0/G1 (%): 56.65 ± 6.01%
  G2/M (%): 9.4 ± 3.68 %
  S (%): 21.45 ± 2.33 %
  Sub G1 (%): 6.85 ± 0.64%
[5]; HT-29, 5 μM, 36 hr
  G0/G1 (%): 39.1 ± 5.66 %
  G2/M (%): 1.05 ± 0.21%
  S (%): 12.5 ± 0.71%
  Sub G1 (%): 42.6 ± 5.37 %

## CCCCCC1=C/C(=C/c2[nH]c(-c3ccc[nH]3)cc2OC)N=C1C [PG, Prodigiosin]
[2]; Caco2, pre-treatment 6-48 hr, then 5-FU 2 μM 24 hr
  effect of pre-treating on efficacy of 5-FU in the subsequent treatment (MTT): significantly enhanced the efficacy of 5-FU
[2]
  IC50: 2 µM
[3]; Caco2, 0.5 μM, 36 hr
  G0/G1 (%): 51.3 ± 3.8%
  G2/M (%): 14.93 ± 4.27%
  S (%): 12.97 ± 0.49%
  Sub G1 (%): 18.67 ± 2.06 %
[3]; Caco2, 0.5 μM, 48 hr
  G0/G1 (%): 53.43 ± 13.12%
  G2/M (%): 15.9 ± 8.23%
  S (%): 18.17 ± 7.05%
  Sub G1 (%): 11.67 ± 4.07%
[3]; Caco2, 2 μM, 36 hr
  G0/G1 (%): 44.53 ± 7.05%
  G2/M (%): 17.33 ± 1.95%
  S (%): 14.33 ± 1.76%
  Sub G1 (%): 21.47 ± 3.41 %
[3]; Caco2, 2 μM, 48 hr
  G0/G1 (%): 49.87 ± 9.56%
  G2/M (%): 12.43 ± 4.48%
  S (%): 15 ± 6.14%
  Sub G1 (%): 18.77 ± 7.49%
[3]; Caco2, 5 μM, 36 hr
  G0/G1 (%): 37.9 ± 6.04 %
  G2/M (%): 15.43 ± 7.86%
  S (%): 14.23 ± 3.12%
  Sub G1 (%): 30.07 ± 6.7 %
[3]; Caco2, 5 μM, 48 hr
  G0/G1 (%): 45.83 ± 3.3%
  G2/M (%): 8.7 ± 2.07 %
  S (%): 11.67 ± 2%
  Sub G1 (%): 33.53 ± 6.73 %
[3]; Caco2, 12 and 24 hr pretreatment of 1 or 2 μM, then 5-FU
  G2/M phase after pre-treatment then 5-FU (in words): decreased
[4]; HT-29, pre-treatment 6-48 hr, then 5-FU 2 μM 24 hr
  effect of pre-treating on efficacy of 5-FU in the subsequent treatment (MTT): significantly enhanced the efficacy of 5-FU
[4]
  IC50: 0.5 µM
[5]; HT-29, 0.5 μM, 24 hr
  G0/G1 (%): 65.3 ± 5.66 %
  G2/M (%): 11.65 ± 0.78%
  S (%): 5.9 ± 1.13 %
  Sub G1 (%): 14.65 ± 4.03 %
[5]; HT-29, 0.5 μM, 36 hr
  G0/G1 (%): 48.28 ± 6.29 %
  G2/M (%): 5.8 ± 0.84%
  S (%): 5.8 ± 0.68 %
  Sub G1 (%): 37.88 ± 7.42 %
[5]; HT-29, 2 μM, 24 hr
  G0/G1 (%): 54.35 ± 5.02%
  G2/M (%): 12.35 ± 2.33%
  S (%): 9.85 ± 1.2%
  Sub G1 (%): 20.05 ± 5.87 %
[5]; HT-29, 2 μM, 36 hr
  G0/G1 (%): 29.15 ± 3.18 %
  G2/M (%): 14.4 ± 0.71 %
  S (%): 12.3 ± 1.13 %
  Sub G1 (%): 40.25 ± 3.32 %
[5]; HT-29, 5 μM, 24 hr
  G0/G1 (%): 49.8 ± 7.07%
  G2/M (%): 13.25 ± 0.21%
  S (%): 12.9 ± 0%
  Sub G1 (%): 19.6 ± 7.95 %
[5]; HT-29, 5 μM, 36 hr
  G0/G1 (%): 27.85 ± 1.06 %
  G2/M (%): 3.2 ± 0.85 %
  S (%): 5.9 ± 0.42 %
  Sub G1 (%): 61.85 ± 2.47 %
[5]; HT-29, pre-treatment, then 5-FU
  cell cycle phases after pre-treatment then 5-FU (in words): increase of sub G1 phase and decrease of G2/M phase
